Experimental data taken from patent US5240925A (priority 1991, dated 1993).

How the values were obtained:
Test in all cases: whole plant or invertebrate
Type in all cases: in vivo
Phytophthora infestans = settings: in Solanum lycopersicum, 96 h, read-out: percent disease control, TLB
[1] = test system: Puccinia recondita (f. sp. tritici Races PKB and PLD); settings: 240 h, read-out: percent disease control, WLR
[2] = test system: Erysiphe graminis (f. sp. tritici); settings: Blumeria graminis, 192 h; read-out: percent disease control, WPM
Piricularia oryzae = settings: Pyricularia oryzae, 192 h, read-out: percent disease control, RB
[3] = test system: Pseudoperonospora cubensis; settings: in Cucumis sativus, 168 h, read-out: percent disease control, CDM
[4] = test system: Puccinia graminis (f. sp. tritici Race 15B-2); settings: 240 h, read-out: percent disease control, WSR

For `N#CC(Cc1cccnc1)(Cn1cncn1)c1ccc(Cl)cc1` (centres unmarked) [Example 7, 1-[2-(4-Chlorophenyl)-2-cyano-3-(3-pyridyl)propyl]-1,2,4-triazole], the pest or weed control at 150 g/ha (Phytophthora infestans) was 0%, the pest or weed control at 150 g/ha [1] was 0% and the pest or weed control at 150 g/ha [2] was 85%. For the same compound, the pest or weed control at 150 g/ha (Piricularia oryzae) was 0%.

Compound `COc1ccccc1C(C#N)(Cc1ccccn1)Cn1cncn1` (centres unmarked) [Example 9, 1-[2-Cyano-2-(2-methoxyphenyl)-3-(2-pyridyl)propyl]-1,2,4-triazole] has a pest or weed control at 150 g/ha (Phytophthora infestans) of 100%, a pest or weed control at 150 g/ha [1] of 0% and a pest or weed control at 150 g/ha [2] of 0%. It also gave a pest or weed control at 150 g/ha (Piricularia oryzae) of 0%.

`COc1ccccc1C(C#N)(CC1CCCCO1)Cn1cncn1` (centres unmarked) [Example 14, 1-[2-Cyano-2-(2-methoxyphenyl)-3-(tetrahydropyran-2-yl)propyl]-1,2,4-triazole] showed a pest or weed control at 300 g/ha (Phytophthora infestans) of 0%, a pest or weed control at 300 g/ha [3] of 0% and a pest or weed control at 300 g/ha [1] of 0%. For the same compound, the pest or weed control at 300 g/ha [2] was 99% and the pest or weed control at 300 g/ha (Piricularia oryzae) was 0%.

`CC1CN(CCC(C#N)(Cn2cncn2)c2ccc(Cl)cc2)CC(C)O1` (centres unmarked) [Example 4, 1-[2-(4-Chlorophenyl)-2-cyano-4-(2,6-dimethyl-4-morpholinyl)butyl]-1,2,4-triazole] showed a pest or weed control at 300 g/ha (Phytophthora infestans) of 0%, a pest or weed control at 300 g/ha [3] of 0% and a pest or weed control at 300 g/ha [4] of 100%. It also gave a pest or weed control at 300 g/ha [2] of 0% and a pest or weed control at 300 g/ha (Piricularia oryzae) of 0%.

Compound `CC1CN(CCCCC(C#N)(Cn2cncn2)c2ccc(Cl)cc2)CC(C)O1` (centres unmarked) [Example 5, 1-[2-(4-Chlorophenyl)-2-cyano-6-(2,6-dimethyl-4-morpholinyl)hexyl]-1,2,4-triazole] has a pest or weed control at 300 g/ha (Phytophthora infestans) of 0%, a pest or weed control at 300 g/ha [3] of 0% and a pest or weed control at 300 g/ha [4] of 80%. The pest or weed control at 300 g/ha [2] was 0% and the pest or weed control at 300 g/ha (Piricularia oryzae) was 0%.

With `N#CC(CCN1CCOCC1)(Cn1cncn1)c1ccc(Cl)cc1` (centres unmarked) [Example 2, 1-[2-(4-Chlorophenyl)-2-cyano-4-(4-morpholinyl)butyl]-1,2,4-triazole] the pest or weed control at 300 g/ha (Phytophthora infestans) was 0%, the pest or weed control at 300 g/ha [3] was 0% and the pest or weed control at 300 g/ha [4] was 0%. For the same compound, the pest or weed control at 300 g/ha [2] was 50% and the pest or weed control at 300 g/ha (Piricularia oryzae) was 0%.

In the case of `CC1CN(CCCC(C#N)(Cn2cncn2)c2ccc(Cl)cc2)CC(C)O1` (centres unmarked) [Example 3, 1-[2-(4-Chlorophenyl)-2-cyano-5-(2,6-dimethyl-4-morpholinyl)pentyl]-1,2,4-triazole], the pest or weed control at 300 g/ha (Phytophthora infestans) is reported as 0%, the pest or weed control at 300 g/ha [3] is reported as 0% and the pest or weed control at 300 g/ha [4] is reported as 50%. It also gave a pest or weed control at 300 g/ha [2] of 0% and a pest or weed control at 300 g/ha (Piricularia oryzae) of 0%.

With `N#CC(CC1CCCO1)(Cn1cncn1)c1ccccc1` (centres unmarked) [Example 1, 1-[2-Cyano-2-phenyl-3-(tetrahydrofuran-2-yl)propyl]-1,2,4-triazole] the pest or weed control at 225 g/ha (Phytophthora infestans) was 5%, the pest or weed control at 225 g/ha [3] was 10% and the pest or weed control at 225 g/ha [1] was 100%. For the same compound, the pest or weed control at 225 g/ha [2] was 100% and the pest or weed control at 225 g/ha (Piricularia oryzae) was 100%.

`N#CC(Cc1cccs1)(Cn1cncn1)c1ccc(Cl)cc1` (centres unmarked) [Example 13, 1-[2-(4-Chlorophenyl)-2-cyano-3-(2-thienyl)propyl]-1,2,4-triazole] gave a pest or weed control at 150 g/ha (Phytophthora infestans) of 0%, a pest or weed control at 300 g/ha [3] of 0% and a pest or weed control at 150 g/ha [1] of 0%. The pest or weed control at 150 g/ha [4] was 100%, the pest or weed control at 150 g/ha [2] was 100% and the pest or weed control at 300 g/ha (Piricularia oryzae) was 0%.

For `CN1CCCC(CC(C#N)(Cn2cncn2)c2ccc(Cl)cc2Cl)C1` (centres unmarked) [Example 11, 1-[2-Cyano-2-(2,4-dichlorophenyl)-3-(1-methylpiperidin-3-yl)propyl]-1,2,4-triazole], the pest or weed control at 300 g/ha (Phytophthora infestans) was 0%, the pest or weed control at 300 g/ha [3] was 50% and the pest or weed control at 300 g/ha [1] was 25%. For the same compound, the pest or weed control at 300 g/ha [2] was 95% and the pest or weed control at 300 g/ha (Piricularia oryzae) was 0%.

Compound `N#CC(CCCN1CCCCC1)(Cn1cncn1)c1ccc(Cl)cc1Cl` (centres unmarked) [Example 10, 1-[2-Cyano-2-(2,4-dichlorophenyl)-5-(1-piperidinyl)pentyl]-1,2,4-triazole] has a pest or weed control at 300 g/ha [1] of 25%, a pest or weed control at 300 g/ha [2] of 75% and a pest or weed control at 300 g/ha (Piricularia oryzae) of 50%.

In the case of `N#CC(CCc1cccs1)(Cn1cncn1)c1ccc(Cl)cc1` (centres unmarked) [Example 8, 1-[2-(4-Chlorophenyl)-2-cyano-4-(2-thienyl)butyl]-1,2,4-triazole], the pest or weed control at 150 g/ha (Phytophthora infestans) is reported as 80%, the pest or weed control at 150 g/ha [3] is reported as 100% and the pest or weed control at 150 g/ha [1] is reported as 95%. The pest or weed control at 150 g/ha [4] was 95%, the pest or weed control at 150 g/ha [2] was 95% and the pest or weed control at 150 g/ha (Piricularia oryzae) was 0%.

Work on `CC1CN(CCCCCCCCCCCC(C#N)(Cn2cncn2)c2ccc(Cl)cc2)CC(C)O1` (centres unmarked) [Example 6, 1-[2-(4-Chlorophenyl)-2-cyano-13-(2,6-dimethyl-4-morpholinyl)tridecyl]-1,2,4-triazole] yielded a pest or weed control at 300 g/ha (Phytophthora infestans) of 0%, a pest or weed control at 300 g/ha [3] of 0% and a pest or weed control at 300 g/ha [4] of 80%. For the same compound, the pest or weed control at 300 g/ha [2] was 0% and the pest or weed control at 300 g/ha (Piricularia oryzae) was 0%.

Work on `N#CC(CCc1ccccn1)(Cn1cncn1)c1ccccc1` (centres unmarked) [Example 15, 1-[2-Cyano-2-phenyl-4-(2-pyridyl)butyl]-1,2,4-triazole] yielded a pest or weed control at 300 g/ha (Phytophthora infestans) of 85%, a pest or weed control at 300 g/ha [3] of 0% and a pest or weed control at 300 g/ha [1] of 0%. The pest or weed control at 300 g/ha [2] was 85%.

`N#CC(Cc1ccco1)(Cn1cncn1)c1ccc(Cl)cc1` (centres unmarked) [Example 12, 1-[2-(4-Chlorophenyl)-2-cyano-3-(2-furyl)propyl]-1,2,4-triazole] showed a pest or weed control at 150 g/ha (Phytophthora infestans) of 80%, a pest or weed control at 150 g/ha [1] of 0% and a pest or weed control at 150 g/ha [4] of 50%. For the same compound, the pest or weed control at 150 g/ha [2] was 100%.
